Assay results: patent US5466671A, “Apidaecin-type peptide antibiotics with improved activities and/or different antibacterial spectrum” (priority 1994, dated 1995)
Residues, ends and D or L forms follow the SMILES beside them.

Columns and labels:
Shigella dysenteriae = assay type: cell-based; details: for Inhibition zones: in mm diameter: 50 nanomoles per well (3 mm diameter)
Erwinia amylovora = assay: Inhibition zone assay (agar plate); assay type: cell-based; details: for Inhibition zones: in mm diameter: 50 nanomoles per well (3 mm diameter)
A. calcoaceticus = assay: Minimal inhibitory concentration (liquid culture); details: inoculum 16 × 10^6 CFU/ml; a-b = highest concentration with growth - lowest without growth
Morganella morganii = assay: Inhibition zone assay (agar plate); assay type: cell-based; details: 50 nanomoles/well, 3 mm wells
Klebsiella pneumoniae = assay: Inhibition zone assay (agar plate); assay type: cell-based; details: for Inhibition zones: in mm diameter: 50 nanomoles per well (3 mm diameter)
Y. enterocolitica = assay: Minimal inhibitory concentration (liquid culture); details: inoculum 5000 CFU/ml; a-b = highest concentration with growth - lowest without growth
Salmonella typhimurium = assay: Inhibition zone assay (agar plate); assay type: cell-based; details: for Inhibition zones: in mm diameter: 50 nanomoles per well (3 mm diameter)
Yersinia enterocolitica = assay: Inhibition zone assay (agar plate); assay type: cell-based; details: 50 nanomoles/well, 3 mm wells
M. morganii = assay: Minimal inhibitory concentration (liquid culture); details: inoculum 400 CFU/ml; a-b = highest concentration with growth - lowest without growth
Enterobacter cloacae = assay: Inhibition zone assay (agar plate); assay type: cell-based; details: for Inhibition zones: in mm diameter: 50 nanomoles per well (3 mm diameter)
[1] = test system: Escherichia coli (ATCC11775); assay: Inhibition zone assay (agar plate); assay type: cell-based; details: for Inhibition zones: in mm diameter: 50 nanomoles per well (3 mm diameter)
E. coli 11775 = assay: Minimal inhibitory concentration (liquid culture); details: a-b = highest concentration with growth - lowest without growth
E. coli Apid^R = assay: Minimal inhibitory concentration (liquid culture); assay type: cell-based; details: a-b = highest concentration with growth - lowest without growth
Excerpt: For details see `Experimental Procedures`.

E. coli 23802 = assay: Minimal inhibitory concentration (liquid culture); details: inoculum 5000 CFU/ml; a-b = highest concentration with growth - lowest without growth
S. typhimurium = assay: Minimal inhibitory concentration (liquid culture); details: inoculum 8 × 10^6 CFU/ml; a-b = highest concentration with growth - lowest without growth
Salmonella typhi = assay type: cell-based; details: for Inhibition zones: in mm diameter: 50 nanomoles per well (3 mm diameter)
Pseudomonas syringae = assay: Inhibition zone assay (agar plate); assay type: cell-based; details: for Inhibition zones: in mm diameter: 50 nanomoles per well (3 mm diameter)
Rhizobium meliloti = assay: Inhibition zone assay (agar plate); assay type: cell-based; details: 50 nanomoles/well, 3 mm wells
E. coli 25922 = assay: Minimal inhibitory concentration (liquid culture); details: inoculum 1100 CFU/ml; a-b = highest concentration with growth - lowest without growth
[2] = test system: Agrobacterium tumefaciens; assay: Inhibition zone assay (agar plate); assay type: cell-based; details: 50 nanomoles per well (3 mm diameter)
E. coli D22 = assay type: cell-based; details: 50 nanomoles per well (3 mm diameter)
[3] = test system: Acinetobacter calcoaceticus; assay: Inhibition zone assay (agar plate); assay type: cell-based; details: 50 nanomoles per well (3 mm diameter)
[4] = agar plate, 50 nanomoles/well, 3 mm wells

## CC(C)C[C@H](NC(=O)[C@H](CCCNC(=N)N)NC(=O)[C@@H]1CCCN1C(=O)[C@H](Cc1c[nH]cn1)NC(=O)[C@@H]1CCCN1C(=O)[C@@H]1CCCN1C(=O)[C@H](CCCNC(=N)N)NC(=O)[C@@H]1CCCN1C(=O)[C@@H]1CCCN1C(=O)[C@@H](NC(=O)[C@H](CCC(N)=O)NC(=O)[C@H](CCC(N)=O)NC(=O)[C@@H]1CCCN1C(=O)[C@@H](N)CCCNC(=N)N)C(C)C)C(=O)O [Ho -, Arg--Pro--Gln--Gln--Val--Pro--Pro--Arg--Pro--Pro--His--Pro--Arg--Leu] (H-RPQQVPPRPPHPRL-OH)
Shigella dysenteriae; [4]
  inhibition zone diameter (number of plus signs): + ((+) 5-6 mm)
Erwinia amylovora; [4]
  inhibition zone diameter (number of plus signs): ++ ((++) 7-9 mm)
A. calcoaceticus
  minimal inhibitory concentration (MIC): > 20 µg/mL
Morganella morganii
  inhibition zone diameter (number of plus signs): ++ ((++) 7-9 mm)
Klebsiella pneumoniae; [4]
  inhibition zone diameter (number of plus signs): + ((+) 5-6 mm)
Y. enterocolitica
  minimal inhibitory concentration (MIC): 10 to 20 µg/mL
Salmonella typhimurium; [4]
  inhibition zone diameter (number of plus signs): + ((+) 5-6 mm)
Yersinia enterocolitica
  inhibition zone diameter (number of plus signs): ++ ((++) 7-9 mm)
M. morganii
  minimal inhibitory concentration (MIC): 10 to 20 µg/mL
Enterobacter cloacae; [4]
  inhibition zone diameter (number of plus signs): + ((+) 5-6 mm)
[1]; [4]
  inhibition zone diameter (number of plus signs): +++ ((+++) 10-14 mm)
E. coli 11775; inoculum 16 × 10^6 CFU/ml
  minimal inhibitory concentration (MIC): 10 to 20 µg/mL
E. coli 11775; inoculum 1200 CFU/ml
  minimal inhibitory concentration (MIC): 0.5 to 1 µg/mL
E. coli Apid^R; inoculum 12 × 10^6 CFU/ml
  minimal inhibitory concentration (MIC): > 40 µg/mL
E. coli Apid^R; inoculum 1000 CFU/ml
  minimal inhibitory concentration (MIC): > 40 µg/mL
E. coli 23802
  minimal inhibitory concentration (MIC): > 40 µg/mL
S. typhimurium
  minimal inhibitory concentration (MIC): 5 to 10 µg/mL
Salmonella typhi; [4]
  inhibition zone diameter (number of plus signs): + ((+) 5-6 mm)
Pseudomonas syringae; [4]
  inhibition zone diameter (number of plus signs): +++ ((+++) 10-14 mm)
Rhizobium meliloti
  inhibition zone diameter (number of plus signs): ++++ ((++++) 15-19 mm)
E. coli 25922
  minimal inhibitory concentration (MIC): 10 to 20 µg/mL

## CC(C)C[C@H](NC(=O)[C@H](CCCNC(=N)N)NC(=O)[C@@H]1CCCN1C(=O)[C@H](Cc1c[nH]cn1)NC(=O)[C@@H]1CCCN1C(=O)[C@@H]1CCCN1C(=O)[C@H](CCCNC(=N)N)NC(=O)[C@@H]1CCCN1C(=O)[C@@H]1CCCN1C(=O)[C@@H](NC(=O)[C@H](CCC(N)=O)NC(=O)[C@H](CCC(N)=O)NC(=O)[C@@H]1CCCN1C(=O)[C@H](CCCNC(=N)N)NC(=O)[C@@H]1CCCN1C(=O)[C@H](CCCCN)NC(=O)[C@@H](N)Cc1ccccc1)C(C)C)C(=O)O [HoFP, F K P R P Q Q V P P R P P H P R L] (H-FKPRPQQVPPRPPHPRL-OH)
Shigella dysenteriae
  Inhibition zones: in mm diameter: 18 mm
Erwinia amylovora
  Inhibition zones: in mm diameter: 11 mm
Klebsiella pneumoniae
  Inhibition zones: in mm diameter: 14 mm
[2]
  Inhibition zones: in mm diameter: 11 mm
Salmonella typhimurium
  Inhibition zones: in mm diameter: 12 mm
Enterobacter cloacae
  Inhibition zones: in mm diameter: 14 mm
[1]
  Inhibition zones: in mm diameter: 13 mm
Salmonella typhi
  Inhibition zones: in mm diameter: 13 mm
Pseudomonas syringae
  Inhibition zones: in mm diameter: 12 mm
E. coli D22
  Inhibition zones: in mm diameter: 16 mm

## CC[C@H](C)[C@H](NC(=O)[C@@H]1CCCN1C(=O)[C@@H](NC(=O)[C@H](CCC(N)=O)NC(=O)[C@@H]1CCCN1C(=O)[C@H](CO)NC(=O)[C@@H]1CCCN1C(=O)[C@H](CCCNC(=N)N)NC(=O)[C@@H](N)CO)C(C)C)C(=O)N[C@@H](CCCNC(=N)N)C(=O)N1CCC[C@H]1C(=O)N[C@@H](CO)C(=O)N[C@@H](CCC(N)=O)C(=O)N1CCC[C@H]1C(=O)N[C@@H](CCCNC(=N)N)C(=O)N1CCC[C@H]1C(=O)N[C@@H](CCC(N)=O)C(=O)N1CCC[C@H]1C(=O)N[C@@H](Cc1ccccc1)C(=O)N[C@@H](CCCCN)C(=O)N1CCC[C@H]1C(=O)N[C@@H](CCCNC(=N)N)C(=O)N1CCC[C@H]1C(=O)N[C@@H](CCC(N)=O)C(=O)N[C@@H](CCC(N)=O)C(=O)N[C@H](C(=O)N1CCC[C@H]1C(=O)N1CCC[C@H]1C(=O)N[C@@H](CCCNC(=N)N)C(=O)N1CCC[C@H]1C(=O)N1CCC[C@H]1C(=O)N[C@@H](Cc1c[nH]cn1)C(=O)N1CCC[C@H]1C(=O)N[C@@H](CCCNC(=N)N)C(=O)N[C@@H](CC(C)C)C(=O)O)C(C)C [PAB-FP, SRPSPQVPIRPSQPRPQPFKPRPQQVPPRPPHPRL] (H-SRPSPQVPIRPSQPRPQPFKPRPQQVPPRPPHPRL-OH)
Shigella dysenteriae
  Inhibition zones: in mm diameter: 12 mm
Erwinia amylovora
  Inhibition zones: in mm diameter: 5 mm
Klebsiella pneumoniae
  Inhibition zones: in mm diameter: 8 mm
[2]
  Inhibition zones: in mm diameter: 7 mm
Salmonella typhimurium
  Inhibition zones: in mm diameter: 7 mm
Enterobacter cloacae
  Inhibition zones: in mm diameter: 11 mm
[1]
  Inhibition zones: in mm diameter: 10 mm
Salmonella typhi
  Inhibition zones: in mm diameter: 13 mm
E. coli D22
  Inhibition zones: in mm diameter: 14 mm
[3]
  Inhibition zones: in mm diameter: 8 mm

## CC[C@H](C)[C@H](NC(=O)[C@@H]1CCCN1C(=O)[C@@H](NC(=O)[C@H](CCC(N)=O)NC(=O)[C@@H]1CCCN1C(=O)[C@H](CO)NC(=O)[C@@H]1CCCN1C(=O)[C@H](CCCNC(=N)N)NC(=O)[C@@H](N)CO)C(C)C)C(=O)N[C@@H](CCCNC(=N)N)C(=O)N1CCC[C@H]1C(=O)N[C@@H](CO)C(=O)N[C@@H](CCC(N)=O)C(=O)N1CCC[C@H]1C(=O)N[C@@H](CCCNC(=N)N)C(=O)N1CCC[C@H]1C(=O)N[C@@H](CCC(N)=O)C(=O)N1CCC[C@H]1C(=O)NCC(=O)N[C@@H](CCCCN)C(=O)N1CCC[C@H]1C(=O)N[C@@H](CCCNC(=N)N)C(=O)N1CCC[C@H]1C(=O)N[C@@H](CCC(N)=O)C(=O)N[C@@H](CCC(N)=O)C(=O)N[C@H](C(=O)N1CCC[C@H]1C(=O)N1CCC[C@H]1C(=O)N[C@@H](CCCNC(=N)N)C(=O)N1CCC[C@H]1C(=O)N1CCC[C@H]1C(=O)N[C@@H](Cc1c[nH]cn1)C(=O)N1CCC[C@H]1C(=O)N[C@@H](CCCNC(=N)N)C(=O)N[C@@H](CC(C)C)C(=O)O)C(C)C [PAB-GP, SRPSPQVPIRPSQPRPQPGKPRPQQVPPRPPHPRL] (H-SRPSPQVPIRPSQPRPQPGKPRPQQVPPRPPHPRL-OH)
Shigella dysenteriae
  Inhibition zones: in mm diameter: 11 mm
Erwinia amylovora
  Inhibition zones: in mm diameter: 5 mm
Klebsiella pneumoniae
  Inhibition zones: in mm diameter: 9 mm
[2]
  Inhibition zones: in mm diameter: 8 mm
Salmonella typhimurium
  Inhibition zones: in mm diameter: 6 mm
Enterobacter cloacae
  Inhibition zones: in mm diameter: 13 mm
[1]
  Inhibition zones: in mm diameter: 10 mm
Salmonella typhi
  Inhibition zones: in mm diameter: 13 mm
Pseudomonas syringae
  Inhibition zones: in mm diameter: 6 mm
E. coli D22
  Inhibition zones: in mm diameter: 14 mm
[3]
  Inhibition zones: in mm diameter: 9 mm

## CC[C@H](C)[C@H](NC(=O)[C@@H]1CCCN1C(=O)[C@@H](NC(=O)[C@H](CCC(N)=O)NC(=O)[C@@H]1CCCN1C(=O)[C@H](CO)NC(=O)[C@@H]1CCCN1C(=O)[C@H](CCCNC(=N)N)NC(=O)[C@@H](N)CO)C(C)C)C(=O)N[C@@H](CCCNC(=N)N)C(=O)N1CCC[C@H]1C(=O)N[C@@H](CO)C(=O)N[C@@H](CCC(N)=O)C(=O)N1CCC[C@H]1C(=O)N[C@@H](CCCNC(=N)N)C(=O)N1CCC[C@H]1C(=O)N[C@@H](CCC(N)=O)C(=O)N1CCC[C@H]1C(=O)NCC(=O)N[C@@H](CCCCN)C(=O)N1CCC[C@H]1C(=O)N[C@@H](CCCNC(=N)N)C(=O)N1CCC[C@H]1C(=O)N[C@@H](CCC(N)=O)C(=O)N[C@@H](CCC(N)=O)C(=O)N[C@H](C(=O)N1CCC[C@H]1C(=O)N1CCC[C@H]1C(=O)N[C@@H](CCCNC(=N)N)C(=O)N[C@H](C(=O)N1CCC[C@H]1C(=O)N[C@@H](Cc1c[nH]cn1)C(=O)N1CCC[C@H]1C(=O)N[C@@H](CCCNC(=N)N)C(=O)N[C@@H](CC(C)C)C(=O)O)[C@@H](C)O)C(C)C [PAB-GT, SRPSPQVPIRPSQPRPQPGKPRPQQVPPRTPHPRL] (H-SRPSPQVPIRPSQPRPQPGKPRPQQVPPRTPHPRL-OH)
Shigella dysenteriae
  Inhibition zones: in mm diameter: 10 mm
Erwinia amylovora
  Inhibition zones: in mm diameter: 6 mm
Klebsiella pneumoniae
  Inhibition zones: in mm diameter: 8 mm
[2]
  Inhibition zones: in mm diameter: 5 mm
Salmonella typhimurium
  Inhibition zones: in mm diameter: 6 mm
Enterobacter cloacae
  Inhibition zones: in mm diameter: 9 mm
[1]
  Inhibition zones: in mm diameter: 8 mm
Salmonella typhi
  Inhibition zones: in mm diameter: 12 mm
Pseudomonas syringae
  Inhibition zones: in mm diameter: 5 mm
E. coli D22
  Inhibition zones: in mm diameter: 13 mm
[3]
  Inhibition zones: in mm diameter: 8 mm

## QVPIRPSQPRPQPFKPRPQQVPPRTPHPR (QVPIRPSQPRPQPFKPRPQQVPPRTPHPR) [PAB-FT 6-35]
Shigella dysenteriae
  Inhibition zones: in mm diameter: 12 mm
Klebsiella pneumoniae
  Inhibition zones: in mm diameter: 11 mm
Salmonella typhimurium
  Inhibition zones: in mm diameter: 8 mm
Enterobacter cloacae
  Inhibition zones: in mm diameter: 12 mm
[1]
  Inhibition zones: in mm diameter: 13 mm
Salmonella typhi
  Inhibition zones: in mm diameter: 14 mm
E. coli D22
  Inhibition zones: in mm diameter: 14 mm
[3]
  Inhibition zones: in mm diameter: 10 mm

## SQPRPQPFKPRPQQVPPRTPHPR (SQPRPQPFKPRPQQVPPRTPHPR) [PAB-FT 12-35]
Shigella dysenteriae
  Inhibition zones: in mm diameter: 11 mm
Klebsiella pneumoniae
  Inhibition zones: in mm diameter: 6 mm
Enterobacter cloacae
  Inhibition zones: in mm diameter: 11 mm
[1]
  Inhibition zones: in mm diameter: 10 mm
Salmonella typhi
  Inhibition zones: in mm diameter: 5 mm
E. coli D22
  Inhibition zones: in mm diameter: 10 mm
